Data published in paper PMC6290777, “Inhalation of the prodrug PI3K inhibitor CL27c improves lung function in asthma and fibrosis” (Nature Communications, 2018).

Legend:
[1] = tested on: AKT phosphorylation in IPF human lung fibroblasts; test: AKT phosphorylation of human lung fibroblasts; format: cell-based; settings: IPF cells; CL27c 10 µM
Procedure: Human lung fibroblast cell culture
Two separate human lung fibroblast cell lines isolated from IPF patients were used: LL97a derived from a person (ATCC, Manassas, USA) and DHLF-IPF (#CC-7231, Lonza, Switzerland). Control cell lines were CCD-16Lu, obtained from a person that died of astrocytoma –a disease unrelated to IPF - (ATCC) and NHLF (#CC-2512; Lonza). LL97a and CCD-16Lu cells were cultured in Dulbecco's modified Eagles medium (DMEM, Sigma Aldrich, Dorset, UK). Media was supplemented with penicillin/streptomycin (100 U/ml, Thermo-Fischer, Germany) and 10% fetal bovine serum (FBS, Thermo-Fischer, Germany). Cells from Lonza were cultured in the FGMTM (#CC-3132, Lonza). […]
Caliper based assay, the reaction was terminated by addition of EDTA buffer. Substrate and product were separated and quantified electrophoretically using the microfluidic-based and the assay plate was read on Caliper LabChip 3000 Drug Discovery System from Caliper Life Sciences (Walthan, MA, USA). ADP Glo was another method of detection used for some kinase assays where data was obtained by quantifying the intensity of luminescence. For ADP Glo based assay, the reaction was terminated by applying the Promega ADP Glo Kinase Assay kit and the assay plate was read on a LJL Biosystems Analyst HT. […]

[2] = tested on: Akt phosphorylation (Ser473) in murine neutrophils; test: Akt phosphorylation in primary neutrophils stimulated with C5a; format: cell-based, mouse; settings: C5a 25 nM
Procedure: Neutrophils were obtained from bone marrow isolated from femurs and tibias of C57BL/6J mice. Isolated bone marrow cells were centrifuged 12 min at 260× g and resuspended in 2 ml of physiologic salt solution and neutrophils were subsequently isolated after centrifugation (30 min at 1100× g, 4 °C without brake) through 3 Percoll gradients (from bottom to top: solution B, 75% of a 90% Percoll and 10% HBSS stock solution; solution C, 64% of a 90% Percoll and 10% HBSS stock solution; solution D 52% of a 90% Percoll and 10% HBSS stock solution). Once collected at the interface between the solution B and solution C, the cells were washed three times with 10 ml of physiologic salt solution and centrifuged for 5 min at 260 × g, 4 °C and pretreated for 1 h with CL27c at different concentration. After stimulation with C5a protein were extracted with Laemnli buffer.
For all cell types, phosphorylated Akt (P-Akt, Ser 473, 1:100, Cell Signaling Technology #4060) production was detected by western blot analysis and quantified with ChemiDoc™ XRS system. P-Akt signals are normalized on endogenous. […] To derive the EC50, all data were plotted on a dose response curve (Graph Pad software) and the EC50 was calculated by using the non-linear regression fit (equation [log agonist] vs response–variable slope). […]
panel). […] The respective EC50 was calculated by using nonlinear

In the case of `COC(=O)c1cccc(Cn2cc(-c3cccc4c(=O)cc(N5CCOCC5)[nH]c34)nn2)c1` [CL27c], the “serum-induced AKT phosphorylation” value [1] is reported as “effectively blunted serum-induced AKT phosphorylation” and the Akt/PKB phosphorylation [2] is reported as “readily reduced Akt/PKB phosphorylation”.
